The target in data set [1] is T1, Prostaglandin G/H synthase 1 (Ovis aries, UniProt P05979).
T1 sequence (P05979 whole entry): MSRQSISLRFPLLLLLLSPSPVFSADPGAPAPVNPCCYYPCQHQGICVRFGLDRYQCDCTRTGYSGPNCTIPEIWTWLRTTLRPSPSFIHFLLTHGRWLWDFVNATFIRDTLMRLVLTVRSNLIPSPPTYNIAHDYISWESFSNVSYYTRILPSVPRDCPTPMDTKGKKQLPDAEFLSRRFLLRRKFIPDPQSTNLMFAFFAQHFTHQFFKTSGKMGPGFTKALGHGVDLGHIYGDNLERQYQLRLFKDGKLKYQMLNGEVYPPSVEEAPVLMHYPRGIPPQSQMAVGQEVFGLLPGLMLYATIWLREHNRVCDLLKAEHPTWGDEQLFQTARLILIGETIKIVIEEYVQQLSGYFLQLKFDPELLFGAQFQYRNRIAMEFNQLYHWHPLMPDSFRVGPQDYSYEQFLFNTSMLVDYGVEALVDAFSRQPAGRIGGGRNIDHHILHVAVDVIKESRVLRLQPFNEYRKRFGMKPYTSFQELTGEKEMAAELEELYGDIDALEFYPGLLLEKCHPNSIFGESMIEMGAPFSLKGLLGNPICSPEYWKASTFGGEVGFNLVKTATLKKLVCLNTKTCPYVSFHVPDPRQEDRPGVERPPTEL
The data set can be described thus: Inhibition of ovine COX1 using arachidonic acid as substrate by colorimetric assay.

Data set [2] has as its target T2, Prostaglandin G/H synthase 2 (Homo sapiens, UniProt P35354).
T2 sequence (P35354 whole entry): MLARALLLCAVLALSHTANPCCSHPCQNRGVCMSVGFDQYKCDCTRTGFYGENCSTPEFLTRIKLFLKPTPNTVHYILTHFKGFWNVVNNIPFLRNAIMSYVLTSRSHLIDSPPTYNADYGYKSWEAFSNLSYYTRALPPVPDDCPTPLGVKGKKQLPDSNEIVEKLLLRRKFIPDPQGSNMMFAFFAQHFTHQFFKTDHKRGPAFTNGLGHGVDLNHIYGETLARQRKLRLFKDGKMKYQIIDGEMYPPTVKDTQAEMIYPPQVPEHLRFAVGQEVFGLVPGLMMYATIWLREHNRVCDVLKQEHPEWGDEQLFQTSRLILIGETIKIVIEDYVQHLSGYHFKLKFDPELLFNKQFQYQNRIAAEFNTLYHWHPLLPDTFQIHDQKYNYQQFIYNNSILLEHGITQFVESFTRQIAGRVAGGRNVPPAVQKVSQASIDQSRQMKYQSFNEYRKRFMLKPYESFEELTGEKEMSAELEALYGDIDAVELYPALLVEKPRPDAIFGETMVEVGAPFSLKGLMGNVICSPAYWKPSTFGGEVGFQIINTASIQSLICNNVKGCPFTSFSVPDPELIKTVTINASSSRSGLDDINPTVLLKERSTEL
Briefly: Inhibition of human COX2 using arachidonic acid as substrate by colorimetric assay.

Data set [3] has as its target T3, Prostaglandin G/H synthase 1 (Ovis aries) (UniProt P05979).
T3 sequence (whole entry): T1 sequence (P05979 whole entry)
The data set can be described thus: Inhibition of ovine COX1 at 50 uM using arachidonic acid as substrate by colorimetric assay relative to control.

Data set [4] addresses T4, Prostaglandin G/H synthase 2 (Homo sapiens) (UniProt P35354).
T4 sequence (whole entry): T2 sequence (P35354 whole entry)
The data set can be described thus: Inhibition of human COX2 at 50 uM using arachidonic acid as substrate by colorimetric assay relative to control.

Data set [5] can be described thus: Selectivity index, ratio of IC50 for human COX2 to IC50 for ovine COX1.
Data set [6] deals with T3, Prostaglandin G/H synthase 1 (Ovis aries). Briefly: Inhibition of ovine COX1 at 10 uM using arachidonic acid as substrate by colorimetric assay relative to control.
Data set [7] is described as follows: Genotoxicity in Escherichia coli PQ35 at 500 uM after overnight incubation by SOS chromotest. The data set is classed as toxicity.
Data set [8] is described as follows: Genotoxicity in Escherichia coli PQ37 at 500 uM after overnight incubation by SOS chromotest. The data set is classed as toxicity.
For data set [9], the system named is RPMI-8226. The data set can be described thus: Cytotoxicity against human RPMI8226 cells assessed as reduction in cell viability at 3 nM after 48 hrs by CCK8 assay relative to control. Type of data set: functional.
Data set [10] deals with RPMI-8226. Briefly: Cytotoxicity against human RPMI8226 cells assessed as reduction in cell viability at 2 nM after 48 hrs by CCK8 assay. Type of data set: functional, cell-based. (In general: Tetrazolium assays rely on reduction of a dye to a coloured formazan, in cell work by metabolically active cells.)
For data set [11], the system named is NCI-H929. Briefly: Cell cycle arrest in human NCI-H929 cells assessed as accumulation at S phase at 2 nM after 48 hrs by propidium iodide/RNase staining based flow cytometric method relative to control. The data set is classed as functional.
The test system of data set [12] is NCI-H929. Briefly: Cell cycle arrest in human NCI-H929 cells assessed as accumulation at G0/G1 phase at 2 nM after 48 hrs by propidium iodide/RNase staining based flow cytometric method relative to control. Type of data set: functional.
For data set [13], the system named is RPMI-8226. Briefly: Cell cycle arrest in human RPMI8226 cells assessed as accumulation at G0/G1 phase at 3 nM after 48 hrs by propidium iodide/RNase staining based flow cytometric method. Type of data set: functional.
For data set [14], the system named is RPMI-8226. Briefly: Cell cycle arrest in human RPMI8226 cells assessed as accumulation at S phase at 3 nM after 48 hrs by propidium iodide/RNase staining based flow cytometric method. Type of data set: functional. A general note: Flow cytometry measures light scatter and fluorescence of single cells or particles in a stream.
For data set [15], the system named is NCI-H929. The data set can be described thus: Induction of apoptosis in human NCI-H929 cells assessed as early apoptotic cells at 2 nM after 48 hrs by Annexin-V/propidium iodide staining based flow cytometric method (reference value: 17.1%). The data set is classed as functional.
Data set [16] relates to NCI-H929. Briefly: Induction of apoptosis in human NCI-H929 cells assessed as late apoptotic cells at 2 nM after 48 hrs by Annexin-V/propidium iodide staining based flow cytometric method (reference value: 0.23%). Type of data set: functional.
Data set [17] deals with NCI-H929. The data set can be described thus: Induction of apoptosis in human NCI-H929 cells assessed as necrotic cells at 2 nM after 48 hrs by Annexin-V/propidium iodide staining based flow cytometric method (reference value: 0.0034%). The data set is classed as functional.
In data set [18] the test system is NCI-H929. The data set can be described thus: Induction of apoptosis in human NCI-H929 cells assessed as viable cells at 2 nM after 48 hrs by Annexin-V/propidium iodide staining based flow cytometric method (reference value: 82.6%). Type of data set: functional. Particulars: NCI-H929, 48 h, read-out: Activity.
The subject of data set [19] is RPMI-8226. The data set can be described thus: Induction of apoptosis in human RPMI8226 cells assessed as early apoptotic cells at 3 nM after 48 hrs by Annexin-V/propidium iodide staining based flow cytometric method (reference value: 1.05%). The data set is classed as functional.
Data set [20] relates to RPMI-8226. Briefly: Induction of apoptosis in human RPMI8226 cells assessed as late apoptotic cells at 3 nM after 48 hrs by Annexin-V/propidium iodide staining based flow cytometric method (reference value: 0.21%). Type of data set: functional.
The test system of data set [21] is RPMI-8226. The data set can be described thus: Induction of apoptosis in human RPMI8226 cells assessed as necrotic cells at 3 nM after 48 hrs by Annexin-V/propidium iodide staining based flow cytometric method (reference value: 0.090%). The data set is classed as functional.
Data set [22] relates to RPMI-8226. Briefly: Induction of apoptosis in human RPMI8226 cells assessed as viable cells at 3 nM after 48 hrs by Annexin-V/propidium iodide staining based flow cytometric method (reference value: 98.7%). The following applies: RPMI-8226, 48 h, read-out: Activity. The data set is classed as functional.
The subject of data set [23] is RPMI-8226. Briefly: Cytotoxicity against human RPMI8226 cells assessed as reduction in cell viability at 2 nM after 48 hrs by CCK8 assay relative to control. Type of data set: functional, cell-based.
The test system of data set [24] is Plasma. Briefly: Anticoagulant activity in human platelet poor plasma assessed as activated partial thromboplastin time at 100 uM incubated for 15 mins at room temperature and subsequent incubation for 2 mins at 37 degreeC followed by cephalin addition and measured after 2 mins for every secs in presence of CaCl2. The data set is classed as functional.
For data set [25], the system named is Plasma. Briefly: Anticoagulant activity in human platelet poor plasma assessed as prothrombin time at 100 uM incubated for 15 mins at room temperature and subsequent incubation for 2 mins at 37 degreeC followed by PBS addition and measured after 3 mins for every secs in presence of calcium thromboplastin. The data set is classed as functional.

Activity calls are given as the source filed them. The rule behind the calls is not given here.

On to `COc1ccc(-c2noc(N)c2-c2ccc(OC)cc2)cc1`, for which the results for the IC50 in [1] and in data set [2] were 8.3 µM and above 50 µM, respectively. The same compound registered an inhibition in [3] of 89%.
On to `COc1ccc(-c2noc(CF)c2-c2ccc(OC)cc2)cc1`, for which the concentration for half-maximal inhibition (IC50) in data set [1] was 0.35 µM; in data set [2], 0.3 µM. Further, the results for the inhibition in data set [3] and in data set [4] were 100% and 85%, respectively.
As for `COc1ccc(-c2c(-c3ccc(F)cc3)noc2N)cc1`, the IC50 is 13 µM in data set [1] and above 50 µM in data set [2]. The same compound yielded an inhibition in data set [3] of 83%.
In the same order, the values of `Nc1onc(-c2ccc([N+](=O)[O-])cc2)c1-c1ccc(F)cc1` are 12 µM, above 50 µM and 71%.
In the case of `COc1ccc(-c2noc(C)c2-c2ccc(OC)cc2)cc1`, 0.35 µM corresponded to half-maximal inhibition in data set [2] (IC50). Moreover, the Ratio IC50 in data set [5] amounted to 4.6.
As to `COc1ccc(-c2c(-c3ccc(N)cc3)noc2CC(=O)O)cc1`, the IC50 in [1] and in data set [2] was above 50 µM in each case. Further, the results for the inhibition in data set [3] and in data set [4] were 33% and 42%, respectively.
Take `CS(=O)(=O)c1ccc(-c2noc(N)c2-c2ccc(F)cc2)cc1`: the IC50 in data set [1] and in [2] was above 50 µM each time.
In the case of `COc1ccc(-c2c(-c3ccc(F)cc3)noc2C)cc1`, the 50% inhibitory concentration (IC50) is 3 µM in data set [1] and above 50 µM in data set [2]. The compound further came in with an inhibition in data set [3] of 94%.
For `COc1ccc(-c2noc(CBr)c2-c2ccc(OC)cc2)cc1`, the IC50 in data set [1] stood at 0.1 µM; in data set [2], 0.18 µM. Moreover, the values for the inhibition in data set [3] and in data set [4] were 93% and 63%, respectively.
Turning to `Cc1onc(-c2ccc([N+](=O)[O-])cc2)c1-c1ccc(F)cc1`, the IC50 in [1] and in data set [2] was above 50 µM each time.
In the case of `Cc1onc(-c2ccc(S(C)(=O)=O)cc2)c1-c1ccc(F)cc1`, the half-inhibitory concentration (IC50) in data set [1] was above 50 µM; in data set [2], 0.07 µM. Moreover, the inhibition in [3] amounted to 24%; in data set [4], 52%.
Turning to `COc1ccc(-c2c(-c3ccc(N)cc3)noc2C)cc1`, the IC50 was 23 µM in data set [1] and above 50 µM in data set [2]. The compound also returned an inhibition in data set [3] of 53%.
`COc1ccc(-c2c(-c3ccc([N+](=O)[O-])cc3)noc2C)cc1`: the IC50 in data set [2] is above 50 µM. This compound also showed an inhibition in [6] of 36%.
As for `COc1ccc(-c2c(-c3ccc(NC(C)=O)cc3)noc2CC(=O)O)cc1`, the IC50 is 12 µM in data set [1] and above 50 µM in data set [2]. In data set [3], this compound came in with an inhibition of 79%.
In the same order, the values of `COc1ccc(-c2c(-c3ccc(F)cc3)noc2CC(=O)O)cc1` are 7.5 µM, above 50 µM and 92%.
Regarding `COc1ccc(-c2noc(CCO)c2-c2ccc(OC)cc2)cc1`, the IC50 in data set [1] is 0.12 µM; in data set [2], 0.19 µM. For the same compound, the Ratio IC50 in [5] was determined as 1.6. The figures for the inhibition in data set [3] and in data set [4] were 100% and 82%, respectively.
In the case of `O=[N+]([O-])c1cc[n+]([O-])c2ccccc12` [4-NITROQUINOLINE-1-OXIDE], the Activity entry in [7] and in data set [8] was “Toxic” in each case.
As for `CC(C)C[C@H](NC(=O)[C@H](Cc1ccccc1)NC(=O)c1cnccn1)B(O)O` [BORTEZOMIB], the Activity in [9] is 53%; in data set [11] it was 10%; in data set [12], 10%; in data set [15] it was 48.7%; in data set [16] it was 0.14%; in data set [17], 0.033%. Also, the Activity in data set [19] came out at 8.81%; in [20], 0.11%; in data set [21], 0.0918%. Also, the outcome in data set [10] and in data set [23] was Active. Besides, the result in [13] and in data set [14] was inactive. Also, the viability at 0.002 µM in data set [18] came to 51.1%. In addition, the viability at 0.003 µM in [22] amounted to 91.1%.
As to `O=C(NC[C@H]1CN(c2ccc(N3CCOCC3=O)cc2)C(=O)O1)c1ccc(Cl)s1` [RIVAROXABAN], the APTT in data set [24] was 300 s. In addition, the PT in data set [25] worked out at 300 s.

As a reminder, the IC50 is the midpoint of a concentration-inhibition curve. The low end stands for greater potency in that assay, the high end for weaker potency in that assay. A word on the inhibition: it is the share of the control response that was lost under treatment.

The record behind these values is ChEMBL document CHEMBL4422618, “Translational impact of novel widely pharmacological characterized mofezolac-derived COX-1 inhibitors combined with bortezomib on human multiple myeloma cell lines viability” (Eur J Med Chem, 2019).
